Results as given in publication PMC6149751, “Spiro[pyrrolidine-3,3′-oxindoles] and Their Indoline Analogues as New 5-HT6 Receptor Chemotypes” (Molecules : A Journal of Synthetic Chemistry and Natural …, 2017).
Where two headings read alike, the source gives them in different places.

What was measured:
Format in all cases: binding
5-HT6R = target: T1, 5-HT6R (Homo sapiens, UniProt P50406); assay: [3H]-LSD displacement, HEK293 membranes
T1 construct: gene HTR6; full-length human receptor stably expressed in HEK293 cells; membranes
Excerpt: [3H]-LSD displacement, HEK293 membranes on 5-HT6R

5-HT7bR = target: T2, 5-HT7bR (Homo sapiens, UniProt P34969); assay: [3H]-5-CT displacement, HEK293 membranes
T2 construct: gene HTR7; human splice isoform 5-HT7b stably expressed in HEK293 cells; membranes
Excerpt: [3H]-5-CT displacement, HEK293 membranes on 5-HT7bR

5-HT2AR = target: T3, 5-HT2AR (Homo sapiens, UniProt P28223); assay: [3H]-Ketanserin displacement, CHO-K1 membranes
T3 construct: gene HTR2A; full-length human receptor expressed from plasmid in CHO-K1 cells (PerkinElmer); membranes
Excerpt: [3H]-Ketanserin displacement, CHO-K1 membranes on 5-HT2AR

5-HT1AR = target: T4, 5-HT1AR (Homo sapiens, UniProt P08908); assay: [3H]-8-OH-DPAT displacement, HEK293 membranes
T4 construct: gene HTR1A; full-length human receptor stably expressed in HEK293 cells; membranes
T4 sequence (P08908 1-422): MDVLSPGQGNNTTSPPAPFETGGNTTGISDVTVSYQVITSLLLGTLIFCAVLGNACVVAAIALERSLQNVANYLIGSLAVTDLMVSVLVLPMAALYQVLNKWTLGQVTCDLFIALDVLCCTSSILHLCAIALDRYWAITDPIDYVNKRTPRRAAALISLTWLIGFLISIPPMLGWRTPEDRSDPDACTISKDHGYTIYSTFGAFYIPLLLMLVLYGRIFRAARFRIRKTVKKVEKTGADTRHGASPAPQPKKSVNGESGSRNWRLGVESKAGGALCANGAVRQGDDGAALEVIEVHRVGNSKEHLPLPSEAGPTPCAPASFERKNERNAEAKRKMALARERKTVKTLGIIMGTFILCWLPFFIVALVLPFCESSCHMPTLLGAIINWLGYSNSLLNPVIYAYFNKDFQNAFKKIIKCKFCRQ
Excerpt: [3H]-8-OH-DPAT displacement, HEK293 membranes on 5-HT1AR

T2 sequence (P34969 1-432): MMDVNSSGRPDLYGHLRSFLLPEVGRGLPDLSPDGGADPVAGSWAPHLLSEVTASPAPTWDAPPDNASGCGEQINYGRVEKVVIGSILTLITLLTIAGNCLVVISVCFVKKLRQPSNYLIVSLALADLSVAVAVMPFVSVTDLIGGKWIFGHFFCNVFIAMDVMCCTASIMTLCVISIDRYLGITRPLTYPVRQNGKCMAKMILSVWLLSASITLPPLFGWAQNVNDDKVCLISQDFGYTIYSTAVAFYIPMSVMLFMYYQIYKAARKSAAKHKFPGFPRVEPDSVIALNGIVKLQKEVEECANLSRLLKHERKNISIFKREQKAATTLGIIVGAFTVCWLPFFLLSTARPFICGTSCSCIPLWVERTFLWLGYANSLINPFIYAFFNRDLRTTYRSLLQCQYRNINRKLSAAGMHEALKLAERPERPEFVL
T3 sequence (P28223 whole entry): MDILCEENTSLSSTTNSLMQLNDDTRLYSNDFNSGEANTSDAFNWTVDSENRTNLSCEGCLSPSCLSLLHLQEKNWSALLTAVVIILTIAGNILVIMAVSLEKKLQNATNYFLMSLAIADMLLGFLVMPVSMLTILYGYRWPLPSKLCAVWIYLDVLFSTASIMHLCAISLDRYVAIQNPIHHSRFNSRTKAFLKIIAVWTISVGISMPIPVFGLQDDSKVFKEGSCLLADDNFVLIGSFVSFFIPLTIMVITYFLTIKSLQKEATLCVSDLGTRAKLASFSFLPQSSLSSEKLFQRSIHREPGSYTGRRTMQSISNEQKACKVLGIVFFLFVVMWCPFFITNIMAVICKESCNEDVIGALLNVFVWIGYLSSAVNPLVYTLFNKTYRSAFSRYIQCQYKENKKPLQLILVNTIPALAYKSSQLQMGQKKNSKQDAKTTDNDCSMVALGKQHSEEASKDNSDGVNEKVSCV
T1 sequence (P50406 whole entry): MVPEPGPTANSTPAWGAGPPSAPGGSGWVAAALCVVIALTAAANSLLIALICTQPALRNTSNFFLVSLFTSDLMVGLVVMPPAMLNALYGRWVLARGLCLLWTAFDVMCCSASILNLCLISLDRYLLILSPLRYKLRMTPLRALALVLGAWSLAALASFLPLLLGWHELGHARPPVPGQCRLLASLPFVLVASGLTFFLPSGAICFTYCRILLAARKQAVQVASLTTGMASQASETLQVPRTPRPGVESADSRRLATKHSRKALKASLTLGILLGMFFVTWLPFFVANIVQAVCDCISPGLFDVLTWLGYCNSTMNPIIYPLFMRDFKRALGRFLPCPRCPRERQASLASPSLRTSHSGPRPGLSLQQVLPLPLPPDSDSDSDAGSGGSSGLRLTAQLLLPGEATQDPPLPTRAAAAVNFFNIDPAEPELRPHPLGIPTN

## O=S(=O)(c1ccccc1)N1CC2(CCN(Cc3ccccc3)C2)c2ccccc21 (centres unmarked) [39a, 1′-Benzyl-1-(phenylsulfonyl)spiro[indoline-3,3′-pyrrolidine]]
5-HT6R; read-out: 5-HT6
  Ki: 0.76 µM
5-HT7bR; read-out: 5-HT7
  Ki: 55.8 µM
5-HT2AR; read-out: 5-HT2A
  Ki: 4.76 µM

## O=S(=O)(c1ccccc1)N1CC2(CCN(Cc3ccncc3)C2)c2ccccc21 (centres unmarked) [39b, 1-(Phenylsulfonyl)-1′-(pyridin-4-ylmethyl)spiro[indoline-3,3′-pyrrolidine]]
5-HT6R
  Ki: 6.6 µM
5-HT2AR
  Ki: 26.9 µM

## CN1CCC2(C1)CN(S(=O)(=O)c1ccccc1)c1ccccc12 (centres unmarked) [40a, 1′-Methyl-1-(phenylsulfonyl)spiro[indoline-3,3′-pyrrolidine]]
5-HT6R; read-out: 5-HT6
  Ki: 1.85 µM
5-HT7bR; read-out: 5-HT7
  Ki: 40.2 µM
5-HT2AR; read-out: 5-HT2A
  Ki: 4.52 µM

## CCN1CCC2(C1)CN(S(=O)(=O)c1ccccc1)c1ccccc12 (centres unmarked) [40b, 1′-Ethyl-1-(phenylsulfonyl)spiro[indoline-3,3′-pyrrolidine]]
5-HT6R; read-out: 5-HT6
  Ki: 2.42 µM
5-HT2AR; read-out: 5-HT2A
  Ki: 3.82 µM

## O=S(=O)(c1ccccc1)N1CC2(CCN(Cc3ccccc3F)C2)c2ccccc21 (centres unmarked) [44a, 1′-(2-Fluorobenzyl)-1-(phenylsulfonyl)spiro[indoline-3,3′-pyrrolidine]]
5-HT6R
  Ki: 4.53 µM
5-HT7bR
  Ki: 78.9 µM

## O=S(=O)(c1ccccc1)N1CC2(CCN(Cc3cccc(F)c3)C2)c2ccccc21 (centres unmarked) [44b, 1′-(3-Fluorobenzyl)-1-(phenylsulfonyl)spiro[indoline-3,3′-pyrrolidine]]
5-HT6R; read-out: 5-HT6
  Ki: 1.97 µM
5-HT7bR; read-out: 5-HT7
  Ki: 31.5 µM

## O=S(=O)(c1ccccc1)N1CC2(CCN(Cc3ccc(F)cc3)C2)c2ccccc21 (centres unmarked) [44c, 1′-(4-Fluorobenzyl)-1-(phenylsulfonyl)spiro[indoline-3,3′-pyrrolidine]]
5-HT6R; read-out: 5-HT6
  Ki: 1.77 µM
5-HT7bR; read-out: 5-HT7
  Ki: 15.7 µM

## O=S(=O)(c1ccccc1F)N1CC2(CCN(Cc3ccccc3)C2)c2ccccc21 (centres unmarked) [46a, 1′-Benzyl-1-((2-fluorophenyl)sulfonyl)spiro[indoline-3,3′-pyrrolidine]]
5-HT6R; read-out: 5-HT6
  Ki: 0.19 µM
5-HT7bR; read-out: 5-HT7
  Ki: 42.6 µM

## O=S(=O)(c1cccc(F)c1)N1CC2(CCN(Cc3ccccc3)C2)c2ccccc21 (centres unmarked) [46b, 1′-Benzyl-1-((3-fluorophenyl)sulfonyl)spiro[indoline-3,3′-pyrrolidine]]
5-HT6R; read-out: 5-HT6
  Ki: 0.71 µM
5-HT7bR; read-out: 5-HT7
  Ki: 76 µM

## O=S(=O)(c1ccc(F)cc1)N1CC2(CCN(Cc3ccccc3)C2)c2ccccc21 (centres unmarked) [46c, 1′-Benzyl-1-((4-fluorophenyl)sulfonyl)spiro[indoline-3,3′-pyrrolidine]]
5-HT6R; read-out: 5-HT6
  Ki: 2.45 µM
5-HT7bR; read-out: 5-HT7
  Ki: 56.1 µM

## O=C1Nc2ccccc2C12CCNC2c1cccc(F)c1 (centres unmarked) [compound 6, 2′-(3-fluorophenyl)spiro[indoline-3,3′-pyrrolidin]-2-one]
5-HT1AR; read-out: 5-HT1A
  Ki: 16.9 µM
5-HT6R; read-out: 5-HT6
  Ki: 6.75 µM
5-HT7bR; read-out: 5-HT7
  Ki: 8.48 µM
5-HT2AR; read-out: 5-HT2A
  Ki: 5.05 µM

## COc1ccc(C2NCCC23C(=O)Nc2ccccc23)cc1OC (centres unmarked) [compound 7, 7]
5-HT1AR
  Ki: 7.07 µM
5-HT6R
  Ki: 2.26 µM
5-HT7bR
  Ki: 2.69 µM
5-HT2AR
  Ki: 5.45 µM

## O=C1Nc2ccccc2C12CCNC2c1ccc(OCc2ccc(F)cc2)cc1 (centres unmarked) [compound 8, 8]
5-HT1AR
  Ki: 1.74 µM
5-HT6R
  Ki: 3.18 µM
5-HT7bR
  Ki: 1.09 µM
5-HT2AR
  Ki: 2.28 µM

## O=C1Nc2ccccc2C12CCNC2c1ccc2c(c1)OCO2 (centres unmarked) [compound 9, 9]
5-HT1AR
  Ki: 9.84 µM
5-HT6R
  Ki: 3.2 µM
5-HT7bR
  Ki: 8.82 µM
5-HT2AR
  Ki: 2.69 µM

## O=C1Nc2ccccc2C12CCNC2c1ccc2c(c1)OCCO2 (centres unmarked) [compound 10, 10]
5-HT1AR
  Ki: 12.1 µM
5-HT6R
  Ki: 4.11 µM
5-HT7bR
  Ki: 12.7 µM
5-HT2AR
  Ki: 4.33 µM

## N#Cc1cccnc1Oc1ccc(C2NCCC23C(=O)Nc2ccccc23)cc1 (centres unmarked) [compound 11, 11]
5-HT1AR
  Ki: 49.1 µM
5-HT6R
  Ki: 6.2 µM
5-HT7bR
  Ki: 59 µM
5-HT2AR
  Ki: 8.68 µM

## O=C1Nc2ccccc2C12CCNC2c1cccc2cccnc12 (centres unmarked) [compound 12, 12]
5-HT1AR
  Ki: 45.7 µM
5-HT6R
  Ki: 6.63 µM
5-HT7bR
  Ki: 10.5 µM
5-HT2AR
  Ki: 1.12 µM

## COc1cc(C2NCCC23C(=O)Nc2ccccc23)ccc1OC(F)F (centres unmarked) [compound 13, 13]
5-HT1AR
  Ki: 7.14 µM
5-HT6R
  Ki: 7.73 µM
5-HT7bR
  Ki: 7.49 µM
5-HT2AR
  Ki: 5.77 µM

## CC(C)c1ccc(C2NCCC23C(=O)Nc2ccccc23)cc1 (centres unmarked) [compound 14, 14]
5-HT1AR
  Ki: 7.76 µM
5-HT6R
  Ki: 8.62 µM
5-HT7bR
  Ki: 8.98 µM
5-HT2AR
  Ki: 4.54 µM

## Cn1c(=O)n(C)c2cc(C3NCCC34C(=O)Nc3ccccc34)ccc21 (centres unmarked) [compound 15, 15]
5-HT1AR
  Ki: 40.5 µM
5-HT6R
  Ki: 9.49 µM
5-HT7bR
  Ki: 46.7 µM
5-HT2AR
  Ki: 23.7 µM

## O=C1Nc2ccc(F)cc2C12CCNC2c1ccc(F)c(Cl)c1 (centres unmarked) [compound 16, 16]
5-HT6R
  Ki: 16.5 µM
5-HT2AR
  Ki: 53.9 µM

## O=C1N(S(=O)(=O)c2ccccc2)c2ccccc2C12CCNC2 (centres unmarked) [compound 17, 1-(Phenylsulfonyl)spiro[indoline-3,3′-pyrrolidin]-2-one]
5-HT6R; read-out: 5-HT6
  Ki: 12.3 µM
5-HT7bR; read-out: 5-HT7
  Ki: 58.3 µM

## O=C1Nc2ccccc2C12CCN(S(=O)(=O)c1ccccc1)C2 (centres unmarked) [compound 18, 1′-(Phenylsulfonyl)spiro[indoline-3,3′-pyrrolidin]-2-one]
5-HT6R
  Ki: 6.86 µM
5-HT2AR
  Ki: 87.4 µM
